The text below walks through data of patent publication US5108900A, “Monoclonal antibodies to synthetic pyrethroids and method for detecting the same” (Regents of the University of California, priority 1989, dated 1992).

The subject of one data set is monoclonal antibody Py-1. Nature of the data set: Competition ELISA (cELISA), monoclonal antibody Py-1, 3-pba-BSA coated plates. It counts as binding, mouse. As to conditions: for Average 50% inhibition values (I50), Py-1: Table I, averages from at least 12 assays; for Average 50% inhibition values (I50), Py-1 / I50 values observed for competitors (FIG. 4): Py-1. The method, then:
(§1) The binding specificities of antibodies to standards and assay samples were evaluated by competition ELISA assays. In a competition assay system, an antigen, which is a large molecule with protein or carbohydrate moieties which can precisely bind with steric interaction with the conformation of the antibodies is fixed to the reaction surface of a test plate, and antigen-specific antibody is added along with an aliquot of sample extract or standard test solution. The free-floating antibody partitions between the fixed antigen bound to the test reaction surface and the antigen of the added sample or standard which is free-floating in the solution. After a reaction period, the free-floating antigen-antibody complex is washed away. The plate is rewashed and incubated with an enzyme-tagged indicator molecule which will immunospecifically bind to proteins of the animal species which was the source of the pyrethroid-specific antibodies. Substrate and buffer are provided for the reaction of the enzyme-tagged indicator molecule. The optical signal from the enzyme substrate reaction indicates the amount of pyrethroid-specific antibody which remains bound to the immobilized antigen on the reaction plate. The utility of such a reaction system is dependent on the surface binding of the antigenic hapten-protein complex. The sensitivity of such a binding system can be amplified by coupling the enzyme reaction endpoint to a biotin-avidin complex. Optimal enzyme sensitivity occurs when a minimal amount of coating antigen (3-pba-BSA) is used.
(§2) A competition enzyme-linked immunosorbent assay (c-ELISA) was developed to quantify permethrin standards in solution and to assess the specificity of the antibodies for various natural and synthetic pyrethroids. […] The 3-pba conjugate could be prepared by using EDC (1-ethyl-3-(3-dimethylaminopropyl)carbodiimide) as a cross-linking agent. The 3-pba conjugate was used as the coating agent for all subsequent experiments. Microtiter plates were coated with 0.5 μg/well 3-pba-BSA and blocked with ovalbumin.
(§3) In the competition ELISA, the competitors were dissolved in acetonitrile and were added to phosphate-buffered saline(PBS)-Tween buffer such that the resulting solution was 6% acetonitrile. Competitor was added so that each well contained 100 μl of competitor in a 6% acetonitrile-PBS solution. An equal volume of PBS containing monoclonal antibody was added such that there was a final concentration assay buffer containing antibody and competitor. These antibodies can tolerate up to 5% acetonitrile without loss of activity. The plates were incubated for one hour at 37° C. and the endpoint assessed by observation of the color change of p-nitrophenyl phosphate substrate actuated by alkaline phosphatase conjugated to goat anti-mouse antibody.
(§4) Because the sensitivity of c-ELISA's can be influenced by both the amount of specific anti-hapten antibody used and the amount of immobilized antigen, both of these parameters were optimized. In the preferred method, the amount of antigen used to coat the microtiter plates was varied from 10-0.5 μg/well, with 0.5 μg/well being more preferred. The method of application of the antigen to the plate was important to the assay. Antigen could be absorbed onto the wells overnight at 4° C. or antigen could be allowed to evaporate from the antigen solution onto the wells at 37° C. Using Py-1 antibody and permethrin as competitor, maximal sensitivity was observed when the antigen was allowed to evaporate onto the wells. In the preferred method microliter plates were prepared by evaporation of 100 μl of a 5 μg/mL solution of coating antigen (3-pba-BSA) at 37° C..
The antibody Py-1 was titrated against immobilized antigen (0.5 μg […]/well) in a direct binding ELISA. At a Py-1 antibody concentration of 0.02 μg/well, the level used in subsequent cELISA's, 40% of the plateau activity was reached. […]

The next data set concerns monoclonal antibody Py-3. Nature of the data set: Competition ELISA (cELISA), monoclonal antibody Py-3, 3-pba-BSA coated plates. The class given is binding, mouse. As to conditions: for Average 50% inhibition values (I50), Py-3: Table I, averages from at least 12 assays. The procedure: as §1, §2, §3
as §4, with “C.. […]” for “C..”
(§5) The competition ELISA data was normalized using 100% activity as the optical density in wells in which antibody bound to the solid phase antigen (3-pba-BSA) in the absence of any competitor. The test wells, each containing different amounts of competitor, were normalized to the 100% activity wells. […]
Background: An ELISA detects its analyte on a solid surface through an enzyme-linked reagent.

The next data set has as its system monoclonal antibody Py-4. Description: Competition ELISA (cELISA), monoclonal antibody Py-4, 3-pba-BSA coated plates. The class given is binding, mouse. The note with it: for Average 50% inhibition values (I50), Py-4: Table I, averages from at least 12 assays. The procedure: as §1, §2, §3
as §4, with “C.. […]” for “C..”
as §5

Data set [1] relates to Antibodies selected for their binding to the analog hapten of permethrin. Nature of the data set: Antibody response to hapten and related pyrethroids. Also on record: species or system mouse. The source says: Synthetic pyrethroids are small organic molecules, and in an effort to render such a molecule immunogenic, it was necessary to conjugate such molecules to carrier protein. Various modifications of synthetic pyrethroids can be made to achieve this purpose.

For data set [2] the following is noted: background; cited from earlier work.
The conditions of data set [3]: cited from earlier work; for mammalian toxicity: background; for oncogenicity listing by U.S. Environmental Protection Agency: Regulating Pesticides in Food: The Delaney Paradox, 1987.

With `CC1(C)C(C(=O)O)C1C(=O)OCc1cccc(Oc2ccccc2)c1` (stereo not shown) [Hapten], the “Average 50% inhibition values (I50), Py-1” value in the data set on monoclonal antibody Py-1 came to 2 nanograms. Moreover, the “Average 50% inhibition values (I50), Py-3” value with monoclonal antibody Py-3 is 0.3 nanograms. Further, the “Average 50% inhibition values (I50), Py-4” value in the data set on monoclonal antibody Py-4 came to 0.6 nanograms. Further, the responsiveness of antibodies result in data set [1] is listed as “similarly responsive”.

For the compound `CC(C)C(C(=O)OC(C#N)c1cccc(Oc2ccccc2)c1)c1ccc(Cl)cc1` (stereo not shown) [Fenvalerate, cyano(3-phenoxyphenyl)methyl 4-chloroalpha-(1-methylethyl)benzeneacetate], in the data set with monoclonal antibody Py-1, the “I50 values observed for competitors (FIG. 4)” value (“I50 values observed” below) came out at 350 ng/well and the “Average 50% inhibition values (I50), Py-1” value is on record as 350 nanograms. Further, the “Average 50% inhibition values (I50), Py-3” value in the data set on monoclonal antibody Py-3 is 160 nanograms. Moreover, in the data set with monoclonal antibody Py-4, the “Average 50% inhibition values (I50), Py-4” value was 4000 nanograms.

As for `O=C(O)c1cccc(Oc2ccccc2)c1` [3-Phenoxybenzoic acid], the “Average 50% inhibition values (I50), Py-1” value with monoclonal antibody Py-1 is recorded as 200 nanograms. Also, in the data set with monoclonal antibody Py-3, the “Average 50% inhibition values (I50), Py-3” value came to 140 nanograms. The “Average 50% inhibition values (I50), Py-4” value with monoclonal antibody Py-4 came to 330 nanograms.

In the case of `CC1(C)C(C(=O)OC(C#N)c2cccc(Oc3ccccc3)c2)C1(C)C` (stereo not drawn) [Fenpropathrin, alpha-cyano-3-phenoxybenzyl-2,2,3,3-tetramethylcyclopropanecarboxylate], the “Average 50% inhibition values (I50), Py-1” value with monoclonal antibody Py-1 is listed as 17 nanograms. Further, the “Average 50% inhibition values (I50), Py-3” value with monoclonal antibody Py-3 is on record as 10 nanograms. Also, the “Average 50% inhibition values (I50), Py-4” value with monoclonal antibody Py-4 worked out at 25 nanograms.

Take `C=CCC1=C(C)C(OC(=O)C2C(C=C(C)C)C2(C)C)CC1=O` (stereo not shown) [allethrin]: the “stability in the air and water” value in data set [2] is reported as “unstable character”.

With `CC(C)=CC1C(C(=O)OCc2cccc(Oc3ccccc3)c2)C1(C)C` (mixture of isomers) [Phenothrin, 3-phenoxybenzyl(lRS)cis,transchrysanthemate], in the data set on monoclonal antibody Py-1, the “I50 values observed” value was found to be 1.5 ng/well and the “Average 50% inhibition values (I50), Py-1” value is reported as 1.5 nanograms. In addition, the “Average 50% inhibition values (I50), Py-3” value in the data set on monoclonal antibody Py-3 worked out at 0.5 nanograms. Moreover, the “Average 50% inhibition values (I50), Py-4” value with monoclonal antibody Py-4 is listed as 6 nanograms. The responsiveness of antibodies result in data set [1] was “similarly responsive”.

As for `CC(C)=CC1C(C(=O)OCN2C(=O)C3=C(CCCC3)C2=O)C1(C)C` (mixture of isomers) [Tetramethrin, N-(3,4,5,6-tetrahydrophthalimino) methyl (dl)-cis,trans-chrysanthemate], the “Average 50% inhibition values (I50), Py-1” value with monoclonal antibody Py-1 is given as more than 600 nanograms.

On to `CC1(C)[C@H](C(=O)O[C@H](C#N)c2cccc(Oc3ccccc3)c2)[C@@H]1C=C(Br)Br` (racemic) [Deltamethrin, -/+alpha-cyano-3-phenoxybenzyl-(+/-)-cis,trans-3-(2,2-dibromovinyl)-2,2-dimethylcyclopropanecarboxylate], for which, in the data set with monoclonal antibody Py-1, the “I50 values observed” value is 15 ng/well and the “Average 50% inhibition values (I50), Py-1” value was 15 nanograms. Besides, the mammalian toxicity result in data set [3] is on record as “low mammalian toxicity”. In the data set with monoclonal antibody Py-3, the “Average 50% inhibition values (I50), Py-3” value was 10 nanograms. Moreover, the stability result in data set [2] was “more stable”. Also, the “Average 50% inhibition values (I50), Py-4” value in the data set on monoclonal antibody Py-4 amounted to 10 nanograms.

Regarding `CC1(C)C(C=C(Cl)Cl)C1C(=O)OCc1cccc(Oc2ccccc2)c1` (mixture of isomers) [Permethrin, 3-phenoxybenzyl (lRS),cis,trans-3(2,2-dichlorovinyl)-2,2-dimethylcyclopropanecarboxylate], in the data set on monoclonal antibody Py-1 (FIG. 3, in words), the “concentration which caused a 50% inhibition (I50) of antibody activity, Py-1” value was “low nanogram range”. For the same compound, the “I50 values observed” value with monoclonal antibody Py-1 is on record as 1.7 ng/well. The “50% inhibition value, Py-1” value in the data set with monoclonal antibody Py-1 (Table 1, ng of competitor) is listed as 1.5 ng. For the same compound, the “Average 50% inhibition values (I50), Py-1” value with monoclonal antibody Py-1 (listed as Permethrin (mixed isomers)) turned out to be 1.5 nanograms. In addition, in data set [3], the “oncogenicity listing by U.S. Environmental Protection Agency” value is reported as “potentially oncogenic” and the mammalian toxicity entry is “low mammalian toxicity”. The “concentration which caused a 50% inhibition (I50) of antibody activity, Py-3” value in the data set with monoclonal antibody Py-3 (FIG. 3, in words) was “low nanogram range”. In the data set with monoclonal antibody Py-3 (Table 1, ng of competitor), the “50% inhibition value, Py-3” value was found to be 1.7 ng. In the data set with monoclonal antibody Py-3, the “Average 50% inhibition values (I50), Py-3” value was 1.7 nanograms. Also, the stability entry in data set [2] is recorded as “more stable”. Besides, the “concentration which caused a 50% inhibition (I50) of antibody activity, Py-4” value with monoclonal antibody Py-4 (FIG. 3, in words) is “low nanogram range”. The “50% inhibition value, Py-4” value in the data set on monoclonal antibody Py-4 (Table 1, ng of competitor) came out at 12 ng. For the same compound, in the data set on monoclonal antibody Py-4, the “Average 50% inhibition values (I50), Py-4” value is 12 nanograms. Moreover, the responsiveness of antibodies entry in data set [1] was “similarly responsive”.

In the case of `CC(C)[C@H](C(=O)OC(C#N)c1cccc(Oc2ccccc2)c1)c1ccc(OC(F)F)cc1` (stereo partly drawn) [Flucythranate, cyano(3-phenoxyphenyl)methyl(S)-4-(difluoromethoxy)-alpha-(1-methylethyl) benzeneacetate], the “Average 50% inhibition values (I50), Py-1” value in the data set with monoclonal antibody Py-1 came to 120 nanograms. Also, the “Average 50% inhibition values (I50), Py-3” value in the data set with monoclonal antibody Py-3 was determined as 45 nanograms. The “Average 50% inhibition values (I50), Py-4” value in the data set with monoclonal antibody Py-4 was 275 nanograms.

In the case of `CC(C)=CC1C(C(=O)O)C1(C)C` (stereo not shown) [Chrysanthemic acid], the “Average 50% inhibition values (I50), Py-1” value with monoclonal antibody Py-1 was more than 600 nanograms.

Take `CC1(C)C(C=C(Cl)Cl)C1C(=O)OC(C#N)c1cccc(Oc2ccccc2)c1` (mixture of isomers) [Cypermethrin, alpha-cyano-3-phenoxybenzyl cis, trans-3-(2,2-dichlorovinyl)-2,2-dimethylcyclopropanecarboxylate]: in the data set on monoclonal antibody Py-1, the “I50 values observed” value is 30 ng/well and the “Average 50% inhibition values (I50), Py-1” value was 30 nanograms. In addition, in data set [3], the “oncogenicity listing by U.S. Environmental Protection Agency” value is reported as “potentially oncogenic” and the mammalian toxicity result is “low mammalian toxicity”. In addition, in the data set on monoclonal antibody Py-3, the “Average 50% inhibition values (I50), Py-3” value is listed as 20 nanograms. Further, the stability entry in data set [2] was “more stable”. In the data set with monoclonal antibody Py-4, the “Average 50% inhibition values (I50), Py-4” value stood at 22 nanograms.

Turning to `O=Cc1cccc(Oc2ccccc2)c1` [3-Phenoxybenzaldehyde], in the data set on monoclonal antibody Py-1, the “Average 50% inhibition values (I50), Py-1” value was 22 nanograms.

Regarding `C=CCC1=C(C)C(OC(=O)[C@@H]2[C@@H](C=C(C)C)C2(C)C)CC1=O` (stereo partly shown) [bioallethrin], the “stability in the air and water” value in data set [2] is listed as “unstable character”.

As to `CC1(C)C(C=C(Cl)Cl)C1C(=O)OCc1cccc(Oc2ccccc2)c1` [Permethrin (trans isomers)], in the data set with monoclonal antibody Py-1, the “Average 50% inhibition values (I50), Py-1” value is 1.7 nanograms.
